Assays:
[1] = target: Sphingosine 1-phosphate receptor 2 (Homo sapiens, UniProt O95136); assay type: functional
[2] = target: Sphingosine 1-phosphate receptor 2 (Rattus norvegicus, UniProt P47752); assay type: functional
CREB-binding protein = CREB-binding protein (Homo sapiens, UniProt Q92793)
Chain of CREB-binding protein (Q92793 whole entry): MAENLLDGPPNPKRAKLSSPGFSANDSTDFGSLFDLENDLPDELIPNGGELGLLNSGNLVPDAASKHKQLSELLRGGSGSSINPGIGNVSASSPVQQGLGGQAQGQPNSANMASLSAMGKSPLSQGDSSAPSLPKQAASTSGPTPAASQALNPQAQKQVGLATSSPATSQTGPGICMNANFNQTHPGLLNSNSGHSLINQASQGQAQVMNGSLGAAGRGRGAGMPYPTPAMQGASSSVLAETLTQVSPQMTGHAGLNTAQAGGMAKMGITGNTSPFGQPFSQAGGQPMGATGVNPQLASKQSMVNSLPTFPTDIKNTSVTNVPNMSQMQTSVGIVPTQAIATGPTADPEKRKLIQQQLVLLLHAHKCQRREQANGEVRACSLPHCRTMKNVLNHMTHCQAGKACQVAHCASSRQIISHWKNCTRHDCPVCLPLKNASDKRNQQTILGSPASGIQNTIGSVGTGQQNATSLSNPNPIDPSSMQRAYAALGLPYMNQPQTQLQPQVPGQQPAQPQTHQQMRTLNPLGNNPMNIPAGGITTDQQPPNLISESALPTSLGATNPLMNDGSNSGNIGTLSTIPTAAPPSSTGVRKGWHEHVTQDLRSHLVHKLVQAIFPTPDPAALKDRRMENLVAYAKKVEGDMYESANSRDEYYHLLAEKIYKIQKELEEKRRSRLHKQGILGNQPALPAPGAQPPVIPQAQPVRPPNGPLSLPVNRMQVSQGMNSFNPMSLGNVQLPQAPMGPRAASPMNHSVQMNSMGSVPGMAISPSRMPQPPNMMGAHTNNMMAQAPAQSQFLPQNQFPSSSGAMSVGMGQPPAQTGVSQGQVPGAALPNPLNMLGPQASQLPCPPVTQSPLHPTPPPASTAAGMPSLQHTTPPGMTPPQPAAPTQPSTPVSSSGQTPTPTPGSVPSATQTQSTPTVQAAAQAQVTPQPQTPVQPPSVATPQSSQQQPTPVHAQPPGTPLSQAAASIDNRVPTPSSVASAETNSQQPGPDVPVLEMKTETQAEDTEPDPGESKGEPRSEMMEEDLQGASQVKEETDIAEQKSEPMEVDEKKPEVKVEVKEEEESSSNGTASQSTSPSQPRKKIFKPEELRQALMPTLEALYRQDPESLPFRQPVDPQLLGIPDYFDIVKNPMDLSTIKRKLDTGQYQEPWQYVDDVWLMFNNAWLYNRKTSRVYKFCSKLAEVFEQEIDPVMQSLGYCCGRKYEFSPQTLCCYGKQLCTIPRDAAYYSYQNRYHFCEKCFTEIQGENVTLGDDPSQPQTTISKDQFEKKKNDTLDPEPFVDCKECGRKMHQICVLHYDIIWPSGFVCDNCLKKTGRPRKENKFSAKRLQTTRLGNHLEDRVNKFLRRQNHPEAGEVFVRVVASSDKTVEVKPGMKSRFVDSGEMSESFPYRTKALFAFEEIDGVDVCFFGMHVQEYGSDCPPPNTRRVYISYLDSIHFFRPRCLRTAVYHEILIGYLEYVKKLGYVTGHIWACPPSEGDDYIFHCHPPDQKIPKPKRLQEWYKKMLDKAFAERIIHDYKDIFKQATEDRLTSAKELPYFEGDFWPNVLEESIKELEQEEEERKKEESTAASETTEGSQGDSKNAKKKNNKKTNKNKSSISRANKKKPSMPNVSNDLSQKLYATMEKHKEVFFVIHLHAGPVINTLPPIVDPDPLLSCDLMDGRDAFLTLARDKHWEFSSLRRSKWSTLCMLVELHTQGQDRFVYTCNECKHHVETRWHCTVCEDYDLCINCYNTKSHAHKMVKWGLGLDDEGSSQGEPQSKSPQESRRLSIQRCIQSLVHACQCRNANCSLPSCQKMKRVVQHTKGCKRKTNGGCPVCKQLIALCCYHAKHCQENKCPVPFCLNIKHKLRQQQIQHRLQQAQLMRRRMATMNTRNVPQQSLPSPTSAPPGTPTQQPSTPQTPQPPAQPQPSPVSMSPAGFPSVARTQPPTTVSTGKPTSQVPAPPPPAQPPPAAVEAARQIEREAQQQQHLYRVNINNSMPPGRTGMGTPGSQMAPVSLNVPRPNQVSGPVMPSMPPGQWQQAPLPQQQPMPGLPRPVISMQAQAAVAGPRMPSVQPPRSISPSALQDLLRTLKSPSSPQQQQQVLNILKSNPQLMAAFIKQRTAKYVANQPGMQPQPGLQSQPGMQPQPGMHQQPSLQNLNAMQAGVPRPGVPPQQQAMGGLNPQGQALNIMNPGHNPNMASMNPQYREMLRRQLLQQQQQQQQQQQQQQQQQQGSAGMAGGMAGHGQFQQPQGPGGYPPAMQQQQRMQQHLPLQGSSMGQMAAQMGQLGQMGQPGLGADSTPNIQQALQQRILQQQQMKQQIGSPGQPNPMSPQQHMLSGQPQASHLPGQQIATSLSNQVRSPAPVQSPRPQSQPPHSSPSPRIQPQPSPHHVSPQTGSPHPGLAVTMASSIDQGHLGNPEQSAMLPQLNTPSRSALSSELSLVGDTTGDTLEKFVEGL

Chain of Sphingosine 1-phosphate receptor 2 (Rattus norvegicus, UniProt P47752) (P47752 whole entry): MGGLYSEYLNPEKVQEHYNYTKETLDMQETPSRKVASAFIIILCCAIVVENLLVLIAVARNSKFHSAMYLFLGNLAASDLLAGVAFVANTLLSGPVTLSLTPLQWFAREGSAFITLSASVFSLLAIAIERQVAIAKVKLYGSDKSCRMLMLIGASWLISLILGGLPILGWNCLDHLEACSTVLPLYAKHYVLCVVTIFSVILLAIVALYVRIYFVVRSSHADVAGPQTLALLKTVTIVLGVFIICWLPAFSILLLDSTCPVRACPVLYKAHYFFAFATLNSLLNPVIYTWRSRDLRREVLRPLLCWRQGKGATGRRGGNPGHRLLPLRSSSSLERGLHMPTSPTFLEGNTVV
Chain of Sphingosine 1-phosphate receptor 2 (Homo sapiens, UniProt O95136) (O95136 whole entry): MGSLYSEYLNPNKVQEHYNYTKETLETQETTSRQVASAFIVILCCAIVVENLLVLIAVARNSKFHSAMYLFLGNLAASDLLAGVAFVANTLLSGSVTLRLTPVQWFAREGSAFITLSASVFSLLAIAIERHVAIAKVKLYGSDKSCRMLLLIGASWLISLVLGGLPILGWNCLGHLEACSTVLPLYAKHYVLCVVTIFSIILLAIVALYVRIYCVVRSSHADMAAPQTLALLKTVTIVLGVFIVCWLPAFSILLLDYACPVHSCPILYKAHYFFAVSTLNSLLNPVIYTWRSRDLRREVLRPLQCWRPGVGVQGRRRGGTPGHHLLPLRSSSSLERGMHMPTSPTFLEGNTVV

IC50 [1] [nM] | IC50 [2] [nM] | IC50 (CREB-binding protein) [nM] | Compound
20 | 20 |  | Cc1nn(C)c2nc(NNC(=O)Nc3cc(Cl)nc(Cl)c3)cc(C(C)C)c12
 |  | 3000 | O=C1[C@H](Cc2ccc(O)cc2)N2C(=O)CCN(C(=O)NCc3ccccc3)[C@H]2CN1Cc1cccc2ccccc12
